Assay results taken from patent US20030125337A1, “Inhibitors of multidrug transporters” (priority 1998, published 2003).
In brackets after ≈: the same amount, converted by molar mass. Where two headings read alike, the source gives them in different places.

Legend:
S. aureus (SA1199B) = assay: Minimal inhibitor concentration decreasing the ciprofloxacin MIC two fold, S. aureus SA1199B; assay type: cell-based; settings: Staphylococcus aureus, read-out: Effectivity IC50* S. Aureus
S. aureus strain SA1199B = assay: Checkerboard synergy testing of inhibitors with ciprofloxacin, S. aureus SA1199B; assay type: cell-based; settings: combination with ciprofloxacin
Experimental: (§1) Synergy testing was performed with the strain NA by checkerboard titration in microtiter plates using two-fold serial broth microdilution (Eliopoulus and Moellering Jr., 1996). […] Wells were assessed visually for growth after an 18 h incubation period. The Fractional Inhibitory Concentration (FIC) was calculated for each inhibitor and ethidium combination. The following formulae were used to calculate the FIC index: [drawing 43]
(§2) The inventors have quantitated the effects of the combination of the NorA inhibitors with ciprofloxacin, currently the most widely used fluoroquinolone and the second most prescribed antibiotic. Synergy testing was performed by checkerboard titration as described above for ethidium. […] All five compounds acted in a synergistic manner with ciprofloxacin, having FIC indices <0.5 (see Table 4). The inventors concluded that, similarly to their effects on the bacteriotoxicity of ethidium, each of the tested NorA inhibitors promotes the bacteriotoxicity of ciprofloxacin in a synergistic manner.

[1] = tested on: wild type S. aureus SA1199; assay type: cell-based; settings: INF inhibitors 5 μg/ml, reserpine 20 μg/ml; for Frequency of emergence of variants resistant to two fold the MIC of ciprofloxacin, Spontaneous: SA1199, ciprofloxacin 1 μg/ml, 48 h; for Frequency of emergence of variants resistant to two fold the MIC of ciprofloxacin, Mutagenized: SA1199 mutagenized with ethylmethane sulfonate; for Fold inhibition of emergence of resistance: ciprofloxacin resistance, SA1199
Experimental: The effect of the inhibitors on the rate of emergence of in vitro selected single-step ciprofloxacin resistant mutants of wild type S. aureus SA1199 (Kaatz et al., 1990) was determined.
Ciprofloxacin resistance in first step in vitro selected mutants of S. aureus is predominantly due to specific point mutations in the targets of this drug, topoisomerase IV and gyrase (Cambau and Gutman, 1993; Ferrero et al., 1994).

S. pneumoniae (SPC2A) = assay: Minimal inhibitor concentration decreasing the ciprofloxacin MIC two fold, S. pneumoniae SPC2A; assay type: cell-based; settings: Streptococcus pneumoniae, read-out: IC50 S. Pneumoniae
strain NA = assay: Checkerboard synergy testing of inhibitors with ethidium, strain NA; assay type: cell-based, B. subtilis; settings: for FIC index: combination with ethidium, strain NA, 18 h, synergy = FIC index <0.5
Experimental: as §1
Synergy was defined as an FIC index of <0.5.

HeLa cell line = assay: Toxicity on HeLa cell line, Cell Titer 96 AQueous MTS-based assay; set-up: species or system human; settings: for Selectivity Index (Toxicity HeLa/Effectivity): HeLa IC50 / S. aureus effectivity IC50; for IC50: Homo sapiens, 72 h, HeLa, read-out: Toxicity HeLa IC50
Experimental: Here the inventors proposed to test the toxicity of the identified lead compounds on several human cell lines. To date, the inventors have determined the IC50 of the lead compounds for the HeLa cell line, the results of which are presented in Table 6. The toxicity of the compounds at concentrations ranging from 0.7 μg/ml to 100 μμg/ml was determined in a 96 well plate by adding the compounds to cells 24 h after seeding at a density of 10^4 per well. After incubation with the compounds for 3 days the effect on cell growth was determined using the Cell Titer 96 AQueous MTS-based assay (Promega, Madison, Wis.).

NA strain = assay: Checkerboard synergy testing of inhibitors with ciprofloxacin, NA strain; assay type: cell-based, B. subtilis; settings: combination with ciprofloxacin
Experimental: as §1, §2

Streptococcus pneumoniae = settings: cited from earlier work
[2] = tested on: most Gram negative microorganisms; settings: cited from earlier work
[3] = tested on: most (≧90%) strains of the following microorganisms (Acinetobacter Iwoffi ... Yersinia enterocolitica); settings: most (≧90%) strains of listed microorganisms; cited from earlier work
[4] = in vivo; cited from earlier work
NorA = target: T1, NorA (Staphylococcus aureus, UniProt P0A0J7); assay: Screen of DiverSet library for reversing the resistance of B. subtilis strain NA to the NorA substrate ethidium bromide; assay type: cell-based; settings: ranking or words
T1 construct: expressed in transfected cells; host or cells: Bacillus subtilis strain NA
Experimental: One library for the compounds identified in the present invention is DiverSet™ (ChemBridge Corp., Glenview, Ill.) The screening of this library consisting of 9,600 compounds, has been completed. The chemical library was screened for compounds effective, at concentrations of 20 μg/ml or less, in reversing the resistance of a specially created B. subtilis strain NA to the NorA substrate ethidium bromide. Although the present invention employed NorA as the multidrug transporter in the screening assays it will be understood by one of skill in the art that the compounds identified herein will likely have applicability to other multidrug transporters.
In an exemplary assay, in order to identify a candidate substance as an inhibitor of NorA, the B. subtilis strain NA may be used. […]
The DiverSet™ library of chemical compounds was screened for compounds effective, at concentrations of 20 μg/ml or less, in reversing the resistance of a specially created B. subtilis strain NA to the NorA substrate ethidium bromide. […] These three classes of compounds were evaluated using the activity data provided and the CoMFA fields generated to see if a 3D-QSAR relationship was present.

[5] = tested on: most strains of certain other organisms (Gram negative aerobes); settings: most strains of listed Gram negative aerobes; cited from earlier work
[6] = tested on: most strains of the following organisms (Staphylococcus aureus, Staphylococcus epidermidis, various Gram negative bacteria); settings: most strains of listed organisms; cited from earlier work
[7] = tested on: Gram-negative and Gram-positive organisms; settings: generally, except staphylococci; cited from earlier work
[8] = SPC2A, minimal concentration required to decrease the MIC for ciprofloxacin by two fold, N.A. = not active at 5 μg/ml

T1 sequence (P0A0J7 whole entry): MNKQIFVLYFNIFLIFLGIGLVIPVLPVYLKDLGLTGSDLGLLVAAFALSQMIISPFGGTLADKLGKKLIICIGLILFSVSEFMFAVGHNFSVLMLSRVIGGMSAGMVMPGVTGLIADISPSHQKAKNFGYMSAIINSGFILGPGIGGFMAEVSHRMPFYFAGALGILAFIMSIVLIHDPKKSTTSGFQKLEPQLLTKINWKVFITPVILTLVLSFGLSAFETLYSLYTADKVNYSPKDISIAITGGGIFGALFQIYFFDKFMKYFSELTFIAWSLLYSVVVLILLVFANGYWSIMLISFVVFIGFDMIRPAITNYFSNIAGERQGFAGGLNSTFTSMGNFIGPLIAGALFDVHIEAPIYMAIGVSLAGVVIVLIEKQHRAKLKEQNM

SMILES: O=[N+]([O-])c1ccc2[nH]c(-c3ccccc3)cc2c1 [INF 55]
- IC50 (S. aureus (SA1199B)): 1.5 µg/mL (≈ 6.3 µM)
- FIC index SA1199B (S. aureus strain SA1199B): 0.25
- Frequency of emergence of variants resistant to two fold the MIC of ciprofloxacin, Spontaneous [1]: <5 × 10^−11
- Frequency of emergence of variants resistant to two fold the MIC of ciprofloxacin, Mutagenized [1]: <2.5 × 10^−10
- Fold inhibition of emergence of resistance [1]: >50
- IC50 (S. pneumoniae (SPC2A); [8]): 5 µg/mL (≈ 21 µM)
- FIC index (strain NA): 0.08
- Selectivity Index (Toxicity HeLa/Effectivity) (HeLa cell line): 27
- IC50 (HeLa cell line; 3 days, MTS): 40 µg/mL (≈ 168 µM)
- FIC index NA (NA strain): 0.25

SMILES: O=C(/C=C/c1ccccc1)Nc1cccc(/C=C/C(=O)c2ccccc2)c1 [INF 240]
- IC50 (S. aureus (SA1199B)): 0.8 µg/mL (≈ 2.26 µM)
- FIC index SA1199B (S. aureus strain SA1199B): 0.28
- Frequency of emergence of variants resistant to two fold the MIC of ciprofloxacin, Spontaneous [1]: <5 × 10^−11
- Frequency of emergence of variants resistant to two fold the MIC of ciprofloxacin, Mutagenized [1]: <2.5 × 10^−10
- Fold inhibition of emergence of resistance [1]: >50
- FIC index (strain NA): 0.16
- Selectivity Index (Toxicity HeLa/Effectivity) (HeLa cell line): 2.5
- IC50 (HeLa cell line; 3 days, MTS): 2 µg/mL (≈ 5.66 µM)
- FIC index NA (NA strain): 0.12

SMILES: COc1ccccc1NC(=O)Nc1ccc2ccccc2c1 [INF 271]
- IC50 (S. aureus (SA1199B)): 1.5 µg/mL (≈ 5.13 µM)
- FIC index SA1199B (S. aureus strain SA1199B): 0.18
- Frequency of emergence of variants resistant to two fold the MIC of ciprofloxacin, Spontaneous [1]: <5 × 10^−11
- Frequency of emergence of variants resistant to two fold the MIC of ciprofloxacin, Mutagenized [1]: <2.5 × 10^−10
- Fold inhibition of emergence of resistance [1]: >50
- IC50 (S. pneumoniae (SPC2A); [8]): 2.5 µg/mL (≈ 8.55 µM)
- FIC index (strain NA): 0.07
- Selectivity Index (Toxicity HeLa/Effectivity) (HeLa cell line): 12
- IC50 (HeLa cell line; 3 days, MTS): 18 µg/mL (≈ 61.6 µM)
- FIC index NA (NA strain): 0.12

SMILES: CC1(C)CC(=O)C2=C(C1)c1c(ccc3ccccc13)NC2c1cc(Br)ccc1O (stereo not shown) [INF 277]
- IC50 (S. aureus (SA1199B)): 0.8 µg/mL (≈ 1.78 µM)
- FIC index SA1199B (S. aureus strain SA1199B): 0.28
- Frequency of emergence of variants resistant to two fold the MIC of ciprofloxacin, Spontaneous [1]: <5 × 10^−11
- Frequency of emergence of variants resistant to two fold the MIC of ciprofloxacin, Mutagenized [1]: <2.5 × 10^−10
- Fold inhibition of emergence of resistance [1]: >50
- IC50 (S. pneumoniae (SPC2A)): 5 µg/mL (≈ 11.2 µM)
- FIC index (strain NA): 0.09
- Selectivity Index (Toxicity HeLa/Effectivity) (HeLa cell line): 6
- IC50 (HeLa cell line): 5 µg/mL (≈ 11.2 µM)
- FIC index NA (NA strain): 0.15

SMILES: O=c1nc(SCc2ccccc2)[nH]c2c1[C@H](c1ccccc1)c1ccccc1O2 [INF 392]
- IC50 (S. aureus (SA1199B)): 0.1 µg/mL (≈ 0.251 µM)
- FIC index SA1199B (S. aureus strain SA1199B): 0.15
- Frequency of emergence of variants resistant to two fold the MIC of ciprofloxacin, Spontaneous [1]: 5 × 10^−11
- Frequency of emergence of variants resistant to two fold the MIC of ciprofloxacin, Mutagenized [1]: 1 × 10^−9
- Fold inhibition of emergence of resistance [1]: 25
- IC50 (S. pneumoniae (SPC2A)): 2.5 µg/mL (≈ 6.27 µM)
- FIC index (strain NA): 0.14
- Selectivity Index (Toxicity HeLa/Effectivity) (HeLa cell line): 450
- IC50 (HeLa cell line): 45 µg/mL (≈ 113 µM)
- FIC index NA (NA strain): 0.28

SMILES: O=C(O)c1cn(C2CC2)c2cc(N3CCNCC3)c(F)cc2c1=O [ciprofloxacin]
- MIC90 (Streptococcus pneumoniae): 1 to 2 µg/mL
- MIC90 [2]: ~0.1 µg/mL (≈ 0.302 µM)
- in vitro minimal inhibitory concentrations (MICs) [3]: ≤ 1 µg/mL
- achievable tissue concentration [4]: 4 µg/mL

SMILES: O=c1nc(SCc2ccccc2)[nH]c(O)c1C(c1ccccc1)c1ccccc1 [compound 41]
- relative inhibitory activity in the initial screening (NorA): most active lead compound in this category

SMILES: CCn1cc(C(=O)O)c(=O)c2cc(F)c(N3CCNCC3)nc21 [enoxacin]
- in vitro minimum inhibitory concentrations (MICs) [5]: ≤ 2.0 µg/mL

SMILES: CC[n+]1c(-c2ccccc2)c2cc(N)ccc2c2ccc(N)cc21 [ethidium, ethidium bromide, reference compound]
- MIC (strain NA; Bacillus subtilis, read-out: MIC for the strain NA): 40 µg/mL

SMILES: CCn1cc(C(=O)O)c(=O)c2cc(F)c(N3CCNC(C)C3)c(F)c21 (stereo not shown) [lomefloxacin]
- in vitro MICs [6]: ≤ 2 µg/mL
- factor by which MBC exceeds MIC [7]: ≤ 2
